Assay results taken from the supplement of paper PMC4862054.
Values joined by “and” are separate entries in the source; they are usually repeats but may differ in a detail not shown here. Equal values may be shown once.

Tests used:
Conditions in all cases: incubation time: 72 h
HDQ-P1 [1] = experiment: normalised viability (% of control), CellTiter-Blue; higher = more viable cells (about 100 = DMSO control)
Description: (§1)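 DSRT, CellTiter-Blue viability, 72 h incubation. Signal is normalised to DMSO and benzethonium chloride controls. Value is the normalised response at dose 7.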

CAL-85-1 [2] = experiment: as above
Description: as §1

DU-4475 [3] = experiment: as above
Description: as §1

CAL-51 [4] = experiment: as above
Description: as §1

MDA-MB-453 [5] = experiment: as above
Description: as §1

CAL-148 [6] = experiment: as above
Description: as §1

SK-BR-3 = experiment: normalised response (% of control), CellTiter-Glo; higher = more viable cells (100 = DMSO, 0 = benzethonium chloride kill control)
Description: (§2)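 DSRT, 72 h incubation, CellTox Green / CellTiter-Glo readout. Signal is normalised to DMSO and benzethonium chloride controls. Value is the normalised response at the highest dose.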

HCC1937 = experiment: as above
Description: as §2

BT-474 = experiment: as above
Description: as §2

HCC1599 = experiment: as above
Description: as §2

HDQ-P1 [7] = experiment: normalised viability (% of control), CellTiter-Blue; higher = more viable cells (about 100 = DMSO control); remark: listed apart in the source
Description: (§3)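 DSRT, CellTiter-Blue viability, 72 h incubation. Signal is normalised to DMSO and benzethonium chloride controls. Value is the normalised response at dose 9.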

CAL-85-1 [8] = experiment: as above; remark: listed apart in the source
Description: as §3

DU-4475 [9] = experiment: as above; remark: listed apart in the source
Description: as §3

CAL-51 [10] = experiment: as above; remark: listed apart in the source
Description: as §3

MDA-MB-453 [11] = experiment: as above; remark: listed apart in the source
Description: as §3

CAL-148 [12] = experiment: as above; remark: listed apart in the source
Description: as §3

SMILES	normalised viability (HDQ-P1 [1])	normalised viability (CAL-85-1 [2])	normalised viability (DU-4475 [3])	normalised viability (CAL-51 [4])	normalised viability (MDA-MB-453 [5])	normalised viability (CAL-148 [6])	normalised response (SK-BR-3)	normalised response (HCC1937)	normalised response (BT-474)	normalised response (HCC1599)	normalised viability (HDQ-P1 [7])	normalised viability (CAL-85-1 [8])	normalised viability (DU-4475 [9])	normalised viability (CAL-51 [10])	normalised viability (MDA-MB-453 [11])	normalised viability (CAL-148 [12])
COc1ccc(-c2cc3c(C)nc(N)nc3n([C@H]3CC[C@H](OCCO)CC3)c2=O)cn1 (1000 nM)	12.2%	23.1%	42.9%	12.9%	7.65%	18.1%	–	–	–	–	–	–	–	–	–	–
COc1ccc(-c2cc3c(C)nc(N)nc3n([C@H]3CC[C@H](OCCO)CC3)c2=O)cn1 (10000 nM)	–	–	–	–	–	–	18.6%	8.02%	23.9%	44%	5.55%	5.23%	0.68%	2.53%	2.5%	1.46%
O=C(Nc1c[nH]nc1-c1nc2ccc(CN3CCOCC3)cc2[nH]1)NC1CC1 [AT9283] (1000 nM)	50.3%	55.4%	10.3%	51.3%	42%	67.3%	70.8%	73.7%	58.6%	74.4%	–	–	–	–	–	–
COc1cc(CCc2cc(NC(=O)c3ccc(N4CC(C)NC(C)C4)cc3)n[nH]2)cc(OC)c1 (stereo not given) [AZD4547] (100 nM)	106%	74.9%	84.3%	101%	78.1%	106%	–	–	–	–	–	–	–	–	–	–
COc1cc(CCc2cc(NC(=O)c3ccc(N4CC(C)NC(C)C4)cc3)n[nH]2)cc(OC)c1 (stereo not given) [AZD4547] (1000 nM)	–	–	–	–	–	–	89.6%	95.8%	99.6%	80.9%	123%	2.48%	0.72%	3.02%	8.97%	11.9%
CCC/C=C/C=C/C(=O)O[C@H]1/C(=C/C(=O)OC)C[C@H]2C[C@H]([C@@H](C)O)OC(=O)C[C@H](O)C[C@@H]3C[C@H](OC(C)=O)C(C)(C)[C@](O)(C[C@@H]4C/C(=C/C(=O)OC)C[C@H](/C=C/C(C)(C)[C@]1(O)O2)O4)O3 [Bryostatin 1] (10 nM)	118%	98.7%	76.5%	109%	92.2%	98.1%	–	–	–	–	–	–	–	–	–	–
CCC/C=C/C=C/C(=O)O[C@H]1/C(=C/C(=O)OC)C[C@H]2C[C@H]([C@@H](C)O)OC(=O)C[C@H](O)C[C@@H]3C[C@H](OC(C)=O)C(C)(C)[C@](O)(C[C@@H]4C/C(=C/C(=O)OC)C[C@H](/C=C/C(C)(C)[C@]1(O)O2)O4)O3 [Bryostatin 1] (100 nM)	–	–	–	–	–	–	73.6%	98.6%	81.2%	86.4%	104%	99.2%	77.3%	109%	102%	67.6%
CO[C@@H](C(=O)N1Cc2[nH]nc(NC(=O)c3ccc(N4CCN(C)CC4)cc3)c2C1)c1ccccc1 [Danusertib] (1000 nM)	45.6%	50.8%	46.3%	44.9%	41.7%	47.2%	–	–	–	–	–	–	–	–	–	–
CO[C@@H](C(=O)N1Cc2[nH]nc(NC(=O)c3ccc(N4CCN(C)CC4)cc3)c2C1)c1ccccc1 [Danusertib] (10000 nM)	–	–	–	–	–	–	85.6%	85.3%	55.5%	78.5%	10.4%	32.1%	13.9%	17.7%	31.3%	69.4%
Cc1nc(Nc2ncc(C(=O)Nc3c(C)cccc3Cl)s2)cc(N2CCN(CCO)CC2)n1 [Dasatinib] (100 nM)	15.8% and 11.4%	56.4% and 53%	95.1% and 108%	47.8% and 48.7%	88.2% and 94.5%	109% and 93.3%	–	–	–	–	–	–	–	–	–	–
Cc1nc(Nc2ncc(C(=O)Nc3c(C)cccc3Cl)s2)cc(N2CCN(CCO)CC2)n1 [Dasatinib] (1000 nM)	–	–	–	–	–	–	97.1%	55.2%	45.7%	97.7%	11.7% and 10.7%	37.7% and 37.6%	100% and 110%	36.7% and 40.3%	84.2% and 84.5%	112% and 97.6%
Cc1c(CN2CCN(C(=O)[C@H](C)O)CC2)sc2c(N3CCOCC3)nc(-c3cnc(N)nc3)nc12 [GDC-0980] (1000 nM)	24.7%	27.1%	50.2%	16.5%	8.12%	15.3%	–	–	–	–	–	–	–	–	–	–
Cc1c(CN2CCN(C(=O)[C@H](C)O)CC2)sc2c(N3CCOCC3)nc(-c3cnc(N)nc3)nc12 [GDC-0980] (10000 nM)	–	–	–	–	–	–	19.2%	29.5%	47.6%	66.2%	10.9%	15.2%	9.81%	3.17%	3.22%	3.74%
Nc1cccc2c1CN(C1CCC(=O)NC1=O)C2=O (stereo not given) [Lenalidomide] (1000 nM)	110% and 96.9%	80% and 74.3%	110% and 88.9%	103% and 100%	85.6% and 104%	95.3% and 104%	–	–	–	–	–	–	–	–	–	–
Nc1cccc2c1CN(C1CCC(=O)NC1=O)C2=O (stereo not given) [Lenalidomide] (10000 nM)	–	–	–	–	–	–	98.5%	102%	94%	103%	106% and 110%	81.6% and 86.1%	95% and 80.6%	97.1% and 99.6%	94.2% and 92.1%	86.1% and 106%
C[C@]12O[C@H](C[C@]1(O)CO)n1c3ccccc3c3c4c(c5c6ccccc6n2c5c31)CNC4=O [Lestaurtinib] (100 nM)	87.8%	99.5%	79.6%	110%	75.1%	104%	–	–	–	–	–	–	–	–	–	–
C[C@]12O[C@H](C[C@]1(O)CO)n1c3ccccc3c3c4c(c5c6ccccc6n2c5c31)CNC4=O [Lestaurtinib] (1000 nM)	–	–	–	–	–	–	29.1%	56%	56.8%	24.3%	77.9%	39.7%	2.87%	55%	28.9%	90.9%

SMILES	normalised viability (HDQ-P1 [1])	normalised viability (CAL-85-1 [2])	normalised viability (DU-4475 [3])	normalised viability (CAL-51 [4])	normalised viability (MDA-MB-453 [5])	normalised viability (CAL-148 [6])	normalised response (SK-BR-3)	normalised response (HCC1937)	normalised response (BT-474)	normalised response (HCC1599)	normalised viability (HDQ-P1 [7])	normalised viability (CAL-85-1 [8])	normalised viability (DU-4475 [9])	normalised viability (CAL-51 [10])	normalised viability (MDA-MB-453 [11])	normalised viability (CAL-148 [12])
O=C1c2c(O)ccc(O)c2C(=O)c2c(NCCNCCO)ccc(NCCNCCO)c21 [Mitoxantrone] (100 nM)	74.2%	63.4%	13%	31.2%	71.3%	25.1%	–	–	–	–	–	–	–	–	–	–
O=C1c2c(O)ccc(O)c2C(=O)c2c(NCCNCCO)ccc(NCCNCCO)c21 [Mitoxantrone] (1000 nM)	–	–	–	–	–	–	56.2%	87.4%	79.3%	85.2%	48.9%	34%	0.48%	16.9%	31%	7.8%
Nc1ccccc1NC(=O)c1ccc(CNc2nccc(-c3cccnc3)n2)cc1 [Mocetinostat] (1000 nM)	90.1%	68.7%	39.2%	77.8%	41.6%	65.5%	–	–	–	–	–	–	–	–	–	–
Nc1ccccc1NC(=O)c1ccc(CNc2nccc(-c3cccnc3)n2)cc1 [Mocetinostat] (10000 nM)	–	–	–	–	–	–	1.68%	49.8%	16.9%	17.1%	48.4%	21%	2.37%	19.3%	11.9%	10%
COc1nc(N)nc2c1ncn2[C@@H]1O[C@H](CO)[C@@H](O)[C@@H]1O [Nelarabine] (1000 nM)	76.9% and 92.7%	101% and 98.4%	103% and 110%	96.7% and 110%	101% and 89.3%	102% and 122%	–	–	–	–	–	–	–	–	–	–
COc1nc(N)nc2c1ncn2[C@@H]1O[C@H](CO)[C@@H](O)[C@@H]1O [Nelarabine] (10000 nM)	–	–	–	–	–	–	76.6%	91.7%	87%	117%	69.1% and 69%	100% and 103%	109% and 104%	99.6% and 98.4%	84.5% and 97.5%	106% and 96.7%
Cc1ccc(Nc2nccc(N(C)c3ccc4c(C)n(C)nc4c3)n2)cc1S(N)(=O)=O [Pazopanib] (1000 nM)	99.8%	87.6%	107%	84.2%	68.8%	85.6%	–	–	–	–	–	–	–	–	–	–
Cc1ccc(Nc2nccc(N(C)c3ccc4c(C)n(C)nc4c3)n2)cc1S(N)(=O)=O [Pazopanib] (10000 nM)	–	–	–	–	–	–	105%	102%	91.4%	94.9%	80.7%	100%	86.8%	83.9%	62.2%	79.5%
O=C(CCBr)N1CCN(C(=O)CCBr)CC1 [Pipobroman] (1000 nM)	91.2%	88.8%	98.1%	114%	93.4%	95.5%	–	–	–	–	–	–	–	–	–	–
C[C@]12C=CC(=O)C=C1CC[C@@H]1[C@@H]2[C@@H](O)C[C@@]2(C)[C@H]1CC[C@]2(O)C(=O)CO [Prednisolone] (1000 nM)	113%	101%	119%	90.3%	76.9%	109%	–	–	–	–	–	–	–	–	–	–
CNC(=O)c1cc(Oc2ccc(NC(=O)Nc3ccc(Cl)c(C(F)(F)F)c3)cc2)ccn1 [Sorafenib] (100 nM)	102% and 77.9%	90.1% and 102%	94.2% and 117%	106%	90.8% and 101%	108%	–	–	–	–	–	–	–	–	–	–
CNC(=O)c1cc(Oc2ccc(NC(=O)Nc3ccc(Cl)c(C(F)(F)F)c3)cc2)ccn1 [Sorafenib] (1000 nM)	–	–	–	–	–	–	96.9%	102%	102%	94.1%	–	76.9% and 89.3%	–	78.7% and 89.8%	81% and 96.6%	96.7% and 105%
CCN(CC)CCNC(=O)c1c(C)[nH]c(/C=C2\C(=O)Nc3ccc(F)cc32)c1C [Sunitinib] (100 nM)	91.3% and 100%	93.3% and 99.1%	109% and 86.6%	115% and 98.3%	94% and 94.8%	94.3% and 116%	–	–	–	–	–	–	–	–	–	–
CCN(CC)CCNC(=O)c1c(C)[nH]c(/C=C2\C(=O)Nc3ccc(F)cc32)c1C [Sunitinib] (1000 nM)	–	–	–	–	–	–	105%	91.7%	98.9%	105%	–	105% and 107%	88.2% and 77.7%	112% and 98.6%	89.9% and 93.9%	107% and 117%
CC[C@@]1(O)C(=O)OCc2c1cc1n(c2=O)Cc2cc3c(CN(C)C)c(O)ccc3nc2-1 [Topotecan] (100 nM)	102%	85.7%	61.2%	73.3%	90.4%	45.5%	–	–	–	–	–	–	–	–	–	–
CC[C@@]1(O)C(=O)OCc2c1cc1n(c2=O)Cc2cc3c(CN(C)C)c(O)ccc3nc2-1 [Topotecan] (1000 nM)	–	–	–	–	–	–	–	–	–	–	77.7%	37.5%	12.4%	15.6%	44.6%	13.8%
